The test system of the assay is P388 leukemia ip, CD2F1 mice, survival T/C. Kind of assay: NCI In Vivo Anticancer Drug Screen. Data for tumor model P388 Leukemia (intraperitoneal) in CD2F1 (CDF1) mice. The following applies: endpoint: median survival time, higher = longer survival. Put shortly: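 Mice carrying the transplanted tumor received test compound or vehicle. Survival was recorded in each group, and the value is the treated-group measurement divided by that of the vehicle-treated control group.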

Where [1] appears, read: dose: 60.0 mg/kg/injection, schedule: Q01DX005 (ip), vehicle: saline with Tween-80.
Where [2] appears, read: dose: 120.0 mg/kg/injection, schedule: Q01DX005 (ip), vehicle: saline with Tween-80.
Where [3] appears, read: dose: 240.0 mg/kg/injection, schedule: Q01DX005 (ip), vehicle: saline with Tween-80.
Setting [4] is: dose: 50.0 mg/kg/injection, schedule: Q01DX009 (ip), vehicle: saline.
The mark [5] stands for this setting: dose: 100.0 mg/kg/injection, schedule: Q01DX009 (ip), vehicle: saline.
[6] abbreviates: dose: 200.0 mg/kg/injection, schedule: Q01DX009 (ip), vehicle: saline.
The mark [7] stands for this setting: dose: 100.0 mg/kg/injection, schedule: Q01DX009 (ip), vehicle: Klucel (hydroxypropylcellulose) (HPC).
The mark [8] stands for this setting: dose: 200.0 mg/kg/injection, schedule: Q01DX009 (ip), vehicle: Klucel (hydroxypropylcellulose) (HPC).
[9] abbreviates: dose: 25.0 mg/kg/injection, schedule: Q01DX009 (ip), vehicle: saline.
Setting [10] is: dose: 50.0 mg/kg/injection, schedule: Q01DX005 (ip), vehicle: Klucel (hydroxypropylcellulose) (HPC).
Where [11] appears, read: dose: 100.0 mg/kg/injection, schedule: Q01DX005 (ip), vehicle: Klucel (hydroxypropylcellulose) (HPC).
[12] abbreviates: dose: 200.0 mg/kg/injection, schedule: Q01DX005 (ip), vehicle: Klucel (hydroxypropylcellulose) (HPC).

Where “and” joins values, the source holds several entries; their conditions need not be identical. Equal entries are not always repeated. Inconclusive results and toxic doses are left out. Peptide text beside a SMILES is read from it.

Regarding `O=C(O)/C=C/c1c[nH]c(=O)[nH]c1=O`, the T/C under setting [1] is 107 % of control, the T/C under setting [2] is 100 % of control and the T/C under setting [3] is 89 % of control.
Consider `O=C(Cn1ccc(O)cc1=O)N1CCOCC1`, for which the T/C by setting is: (dose: 100.0 mg/kg/injection, schedule: Q04DX003 (ip), vehicle: water) 95 % of control; (dose: 200.0 mg/kg/injection, schedule: Q04DX003 (ip), vehicle: water) 90 % of control; (dose: 400.0 mg/kg/injection, schedule: Q04DX003 (ip), vehicle: water) 100 % of control.
Turning to `O=C1CC(=O)OCCOCCOCCO1`, the T/C under setting [4] was 98 % of control, the T/C under setting [5] is 117 % of control and the T/C under setting [6] is 101 % of control.
On to `O=C1CSC(c2ccc(O)c(O)c2)N1c1nncs1` (stereo not given), for which the T/C (dose: 25.0 mg/kg/injection, schedule: Q04DX002 (ip), vehicle: saline with Tween-80) is 96 % of control; the T/C (dose: 50.0 mg/kg/injection, schedule: Q04DX002 (ip), vehicle: saline with Tween-80) is 100 % of control; the T/C (dose: 100.0 mg/kg/injection, schedule: Q04DX002 (ip), vehicle: saline with Tween-80) was 98 % of control.
As for `O=c1c2nccnc2nc2n1CCCS2`, the T/C was 99 % of control under setting [7] and 100 % of control under setting [8].
As to `COC(=O)C(Sc1ccc(Cl)cc1)C1SC(=S)N(C)C1=O` (stereo not given), the T/C by setting is: (dose: 12.5 mg/kg/injection, schedule: Q01DX009 (ip), vehicle: saline with Tween-80) 96 % of control; (dose: 25.0 mg/kg/injection, schedule: Q01DX009 (ip), vehicle: saline with Tween-80) 116 % of control and 88 % of control; (dose: 50.0 mg/kg/injection, schedule: Q01DX009 (ip), vehicle: saline with Tween-80) 104 % of control and 112 % of control; (dose: 100.0 mg/kg/injection, schedule: Q01DX009 (ip), vehicle: saline with Tween-80) 103 % of control and 107 % of control.
For `c1ccc(-c2cc(Nc3ccc4c(c3)OCO4)c3cc(C4CCCCC4)ccc3n2)cc1`, the T/C runs as follows: under setting [1], 103 % of control; under setting [2], 93 % of control; under setting [3], 89 % of control.
Regarding `NC(N)=NCCCC(N)C(=O)NC(CCC(=O)O)C(=O)O` (stereo not drawn) (H-Arg-Glu-OH; configuration not given here), the T/C by setting is: under setting [9], 91 % of control; under setting [10], 100 % of control; under setting [4], 97 % of control; under setting [11], 100 % of control; under setting [5], 94 % of control; under setting [12], 100 % of control. In addition, the T/C was 103 % of control under setting [6] and 88 % of control (dose: 400.0 mg/kg/injection, schedule: Q01DX009 (ip), vehicle: saline).
Regarding `CN(C)CC(CN(C)C)C(=O)c1ccc(O)cc1`, the T/C (dose: 6.25 mg/kg/injection, schedule: Q01DX005 (ip), vehicle: saline) was 118 % of control; the T/C (dose: 12.5 mg/kg/injection, schedule: Q01DX005 (ip), vehicle: saline) was 105 % of control; the T/C (dose: 25.0 mg/kg/injection, schedule: Q01DX005 (ip), vehicle: saline) was 110 % of control.
On to `CCCCCCCCOP(=O)(CC(CP(=O)(O)OC)P(=O)(O)OC)OCCCCCCCC` (stereo not given), for which the T/C by setting is: under setting [10], 91 % of control; under setting [11], 94 % of control; under setting [12], 93 % of control.
Take `CCc1cccc(C)c1NC(=O)C(=O)CC(=O)c1ccc(Cl)cc1Cl`: the T/C runs as follows: under setting [1], 114 % of control; under setting [2], 116 % of control; under setting [3], 113 % of control.
On to `CC(=O)OC(C)(C)/C=C/C(=O)[C@](C)(O)[C@H]1[C@H](O)C[C@@]2(C)[C@@H]3CC=C4[C@@H](C=C(O)C(=O)C4(C)C)[C@]3(C)C(=O)C[C@]12C`, for which the T/C reads like this: (dose: 0.25 mg/kg/injection, schedule: Q01DX009 (ip), vehicle: saline with Tween-80) 87 % of control; (dose: 1.0 mg/kg/injection, schedule: Q01DX009 (ip), vehicle: saline with Tween-80) 91 % of control; (dose: 1.0 mg/kg/injection, schedule: Q01DX009 (ip), vehicle: saline) 93 % of control; (dose: 2.0 mg/kg/injection, schedule: Q01DX009 (ip), vehicle: saline with Tween-80) 91 % of control; (dose: 2.0 mg/kg/injection, schedule: Q01DX009 (ip), vehicle: saline) 94 % of control; (dose: 4.0 mg/kg/injection, schedule: Q01DX009 (ip), vehicle: saline with Tween-80) 91 % of control. In addition, the T/C by setting is: (dose: 4.0 mg/kg/injection, schedule: Q01DX009 (ip), vehicle: saline) 93 % of control; (dose: 8.0 mg/kg/injection, schedule: Q01DX009 (ip), vehicle: saline) 93 % of control.
In the case of `COc1cccc2c1C(=O)c1c(O)c3c(c(O)c1C2=O)CC(O)CC3OC1CC(N)C(O)C(C)O1` (stereo not given), the T/C reads like this: (dose: 3.13 mg/kg/injection, schedule: Q01DX009 (ip), vehicle: water) 157 % of control; (dose: 6.25 mg/kg/injection, schedule: Q01DX009 (ip), vehicle: water) 173 % of control.
For `CCCCOC(=O)CC(C(=O)OCCCC)C(C(=O)OCCCC)P(=O)(OCCCC)OCCCC` (stereo not given), the T/C is 99 % of control (dose: 50.0 mg/kg/injection, schedule: Q01DX005 (ip), vehicle: saline with Tween-80); 100 % of control (dose: 100.0 mg/kg/injection, schedule: Q01DX005 (ip), vehicle: saline with Tween-80); 98 % of control (dose: 200.0 mg/kg/injection, schedule: Q01DX005 (ip), vehicle: saline with Tween-80).
For `O=S(=O)(c1ccc(Cl)cc1)S(=O)(=O)c1ccc(Cl)cc1`, the T/C by setting is: under setting [4], 92 % of control; under setting [5], 97 % of control; under setting [6], 101 % of control.
Turning to `COc1cccc(-c2nnc(-n3cc(-c4ccccc4)cc3N)s2)c1`, the T/C by setting is: (dose: 50.0 mg/kg/injection, schedule: Q01DX001 (ip), vehicle: Klucel (hydroxypropylcellulose) (HPC)) 104 % of control; (dose: 100.0 mg/kg/injection, schedule: Q01DX001 (ip), vehicle: Klucel (hydroxypropylcellulose) (HPC)) 95 % of control; (dose: 200.0 mg/kg/injection, schedule: Q01DX001 (ip), vehicle: Klucel (hydroxypropylcellulose) (HPC)) 89 % of control.
For the molecule `COc1nc(Nc2ccccc2OC)nc(OC)n1`, the T/C reads like this: (dose: 50.0 mg/kg/injection, schedule: Q01DX009 (ip), vehicle: Klucel (hydroxypropylcellulose) (HPC)) 101 % of control; under setting [7], 99 % of control; under setting [8], 100 % of control.
In the case of `C1CCC2CC3CCCCN3COC2CC1` (stereo not given), the T/C by setting is: (dose: 50.0 mg/kg/injection, schedule: Q01DX005 (ip), vehicle: saline) 116 % of control; (dose: 100.0 mg/kg/injection, schedule: Q01DX005 (ip), vehicle: saline) 118 % of control.
As for `COC(=O)C1=NNC(C(=O)OC)=NN1`, the T/C is, setting by setting: (dose: 25.0 mg/kg/injection, schedule: Q01DX009 (ip), vehicle: other) 87 % of control; (dose: 50.0 mg/kg/injection, schedule: Q01DX009 (ip), vehicle: other) 106 % of control; (dose: 100.0 mg/kg/injection, schedule: Q01DX009 (ip), vehicle: other) 98 % of control; (dose: 200.0 mg/kg/injection, schedule: Q01DX009 (ip), vehicle: other) 106 % of control; (dose: 400.0 mg/kg/injection, schedule: Q01DX009 (ip), vehicle: other) 103 % of control.
On to `CC1=[N+]([O-])[N+]([O-])=C(C)C1=O`, for which the T/C by setting is: (dose: 6.25 mg/kg/injection, schedule: Q01DX009 (ip), vehicle: Klucel (hydroxypropylcellulose) (HPC)) 91 % of control; (dose: 12.5 mg/kg/injection, schedule: Q01DX009 (ip), vehicle: Klucel (hydroxypropylcellulose) (HPC)) 100 % of control.
As for `CCN(CCCl)c1ccccc1`, the T/C (dose: 3.12 mg/kg/injection, schedule: Q01DX009 (ip), vehicle: saline) was 105 % of control; the T/C (dose: 6.25 mg/kg/injection, schedule: Q01DX009 (ip), vehicle: saline) is 106 % of control; the T/C (dose: 12.5 mg/kg/injection, schedule: Q01DX009 (ip), vehicle: saline) was 116 % of control; the T/C under setting [9] is 106 % of control and 115 % of control.
On to `COc1ccc2c(c1)N(C(=O)CNC(C)(C)C)c1ccccc1S2`, for which the T/C is, setting by setting: (dose: 100.0 mg/kg/injection, schedule: Q04DX002 (ip), vehicle: saline) 117 % of control; (dose: 200.0 mg/kg/injection, schedule: Q04DX002 (ip), vehicle: saline) 99 % of control.

The record behind these values is PubChem BioAssay AID330 (DTP/NCI, 2004).
